Laboratory results: patent US9376462B2, “Process for preparing delta-7,9(11) steroids from Ganoderma lucidum and analogs thereof” (Indiana University Research and Technology Corporation, priority 2010, dated 2016)
Where two headings read alike, the source gives them in different places.

Tests used:
MCF-7 cells = assay: Cell proliferation assay (tetrazolium salt/MTT method), MCF-7; assay type: cell-based; settings: Homo sapiens, read-out: IC50, inhibition of cell proliferation
Description: (§1) Cell culture: The human breast cancer cell lines MCF-7 and MDA-MB-231, obtained from ATCC (Manassas, Va.), were cultivated in Dulbecco's modified Eagle's medium (DMEM) containing penicillin (50 U/ml), streptomycin (50 U/ml), and 10% fetal bovine serum (FBS). Media and supplements were from Invitrogen (Grand Island, N.Y.).
(§2) Cell proliferation assay: Ganodermanontriol, 13, 14, and 15 (isomers) were dissolved in DMSO (Sigma; St. Louis, Mo.) at a concentration of 10 mM and stored at 4° C. Dulbecco's phosphate buffered saline (DPBS) was purchased from Cambrex Bio Science Walkersville, Inc. (Walkersville, Md.). Cell proliferation was determined by the tetrazolium salt method (MTT method), according to the manufacturer's instructions (Promega, Madison, Wis.). Briefly, MCF-7 and MDA-MB-231 cells (2.5×10^3/well) were cultured in a 96-well plate and treated with ganodermanontriol, 13, 14 and 15 (0-100 μg/ml) for 24, 48, and 72 hrs. At the end of the incubation period, the cells were harvested and absorption was determined with an ELISA plate reader at 570 nm. Data points represent mean±SD in triplicate determinations repeated at least twice. IC50 values were determined by using SigmaPlot (Systat Software Inc, San Jose, Calif.).

MDA-MB-231 cells = assay: Cell proliferation assay (tetrazolium salt/MTT method), MDA-MB-231; assay type: cell-based; settings: Homo sapiens, read-out: IC50, inhibition of cell proliferation
Description: as §1, §2

[1] = tested on: classical pathway (CP) of the complement system; settings: read-out: IC(50), anticomplement activity; cited from earlier work
HIV-1 = settings: MT-4 cells; cited from earlier work
[2] = biological target: recombinant HIV-1 protease (Human immunodeficiency virus type 1 group M subtype B, UniProt P04585); settings: cited from earlier work
human colon cancer cells = settings: in vitro; cited from earlier work
[3] = tested on: xenograft model of colon cancer; settings: cited from earlier work
mammalian cells = settings: potentially through inhibition of lanosterol 14α demethylase; cited from earlier work
[4] = MDA-MB-231 cells, 72 h, 0-100 μM

C[C@H](CC[C@H](O)[C@](C)(O)CO)[C@H]1CC[C@@]2(C)C3=CCC4C(C)(C)C(=O)CC[C@]4(C)C3=CC[C@]12C (stereo partly drawn) [compound 1, (10S,13R,14R,17R)-4,4,10,13,14-Pentamethyl-17-((2R,5S,6R)-5,6,7-trihydroxy-6-methylheptan-2-yl)-4,5,6,10,12,13,14,15,16,17-decahydro-1H-cyclopenta[a]phenanthren-3(2H)-one]
IC50 (MCF-7 cells; MCF7, 72 h): 5.8 µM
IC50 (MDA-MB-231 cells; MDA-MB-231, 72 h): 9.7 µM
IC50 [1]: 17.2 µM
inhibition of HIV-1-induced cytopathic effect (HIV-1): inhibited
inhibitory activity against recombinant HIV-1 protease [2]: significant inhibitory activity
proliferation of human colon cancer cells (human colon cancer cells): suppressed proliferation
tumor growth [3]: inhibited tumor growth

C[C@H](CC[C@@H](O)[C@@](C)(O)CO)[C@H]1CC[C@@]2(C)C3=CCC4C(C)(C)C(=O)CC[C@]4(C)C3=CC[C@]12C (stereo partly drawn) [compound 13, (10S,13R,14R,17R)-4,4,10,13,14-Pentamethyl-17-((2R,5R,6S)-5,6,7-trihydroxy-6-methylheptan-2-yl)-4,5,6,10,12,13,14,15,16,17-decahydro-1H-cyclopenta[a]phenanthren-3(2H)-one]
IC50 (MCF-7 cells; MCF7 cells, 72 h, 0-100 μM): 24.1 µM
IC50 (MDA-MB-231 cells; [4]): 33.8 µM

C[C@H](CC[C@H](O)[C@@](C)(O)CO)[C@H]1CC[C@@]2(C)C3=CCC4C(C)(C)C(=O)CC[C@]4(C)C3=CC[C@]12C (stereo partly drawn) [compound 14, (10S,13R,14R,17R)-4,4,10,13,14-Pentamethyl-17-((2R,5S,6S)-5,6,7-trihydroxy-6-methylheptan-2-yl)-4,5,6,10,12,13,14,15,16,17-decahydro-1H-cyclopenta[a]phenanthren-3(2H)-one]
IC50 (MCF-7 cells; MCF7 cells, 72 h, 0-100 μM): 16.3 µM
IC50 (MDA-MB-231 cells; [4]): 36.7 µM

C[C@H](CC[C@@H](O)[C@](C)(O)CO)[C@H]1CC[C@@]2(C)C3=CCC4C(C)(C)C(=O)CC[C@]4(C)C3=CC[C@]12C (stereo partly drawn) [compound 15, (10S,13R,14R,17R)-4,4,10,13,14-Pentamethyl-17-((2R,5R,6R)-5,6,7-trihydroxy-6-methylheptan-2-yl)-4,5,6,10,12,13,14,15,16,17-decahydro-1H-cyclopenta[a]phenanthren-3(2H)-one]
IC50 (MCF-7 cells; MCF7 cells, 72 h, 0-100 μM): 24.1 µM
IC50 (MDA-MB-231 cells; [4]): 11.3 µM

C/C(=C\CC[C@@H](C)[C@H]1CC(=O)[C@@]2(C)C3=C(C(=O)C[C@]12C)[C@@]1(C)CC[C@H](O)C(C)(C)[C@@H]1C[C@@H]3O)C(=O)O [ganoderic acid β]
inhibitory activity against recombinant HIV-1 protease [2]: significant inhibitory activity

C[C@H](CCC=C(CO)CO)[C@H]1CC[C@@]2(C)C3=CC[C@H]4C(C)(C)C(=O)CC[C@]4(C)C3=CC[C@]12C [ganoderiol F, reference compound]
inhibition of HIV-1-induced cytopathic effect (HIV-1): inhibited

C/C(=C\CC[C@@H](C)[C@H]1CC[C@@]2(C)C3=CCC4C(C)(C)C(=O)CC[C@]4(C)C3=CC[C@]12C)CO (stereo partly drawn) [ganoderol A, (10S,13R,14R,17R)-17-((R,E)-7-Hydroxy-6-methylhept-5-en-2-yl)-4,4,10,13,14-pentamethyl-4,5,6,10,12,13,14,15,16,17-decahydro-1H-cyclopenta[a]phenanthren-3(2H)-one]
melting point: 75 to 80 °C
hypocholestemic activity (mammalian cells): significant hypocholestemic activity

ganodermanodiol
inhibitory activity against recombinant HIV-1 protease [2]: significant inhibitory activity
